Measured values as given in patent publication US20060153958A1, “Relating to flavour compositions” (priority 2003, published 2006).

How the values were obtained:
[1] = tested on: Streptococcus mutans R9; assay: Synergy of flavour material with fluoride in reducing acid production (bottle pH test); type: cell-based; settings: flavour material at 250 ppm plus fluoride (NaF); 2% glucose; anaerobic incubation 18-24 hours; pH difference between broths
Procedure: (§1) 250 ml of PM broth (of formulation as described in Example 1(a) above) was charged to a Duran bottle bunged with a breathable stopper and inoculated with a loopful of Streptococcus mutans R9 (as above). The bacterial culture was then incubated anaerobically for 2-3 days at 37° C., followed by centrifugation at 3600 rpm for 10 minutes. The supernatant was decanted to waste. The pellets remaining were resuspended in 12 ml of 0.1% peptone and the optical density at 540 nm (OD540) measured and adjusted (if required) by diluting with fresh PM broth to between 0.2 and 0.3 to give a stock inoculum culture.
(§2) Broth was prepared by adding 4% (w/v) glucose to 0.3% (w/v) TSB broth (GTSB). The broth was sterilised by aseptically passing the solution through a 0.22 μm filter into a sterile bottle.
Control incubations were prepared by adding 2.5 ml of the stock inoculum culture (adjusted to an OD540 of 0.2-0.3) to 2.5 ml of GTSB containing 4% (w/v) glucose in 0.3% (w/v) TSB.
A test flavour material/flavour was diluted in the GTSB to give a stock solution of flavour material/flavour with a final concentration of 25,000 ppm (250 mg flavour material/flavour in 10 ml of GTSB).
Flavour material/flavour incubations were prepared by adding 2.5 ml of the stock inoculum culture to 2.45 ml of GTSB, and 50 μl of flavour material/flavour stock solution. Thus, flavour materials/flavours were tested at a final concentration of 250 ppm, for their efficacy in inhibiting acid production from 2% glucose.
The mixtures were then incubated anaerobically.
(§3) After anaerobic incubation of the resulting mixtures for 18-24 hours, the pH of the suspensions was measured using a 476530M combination pH electrode (Mettler Toledo, 64 Boston Road, Beaumont Leys, Leicester, LE4 1AW), calibrated using pH 4 and pH 7 buffers. Results were recorded as the difference in pH change between broths containing flavour material/flavour and an untreated control.
Flavour materials useful in a flavour composition of the invention were tested at 250 ppm for their potential synergy with fluoride as described below.
Control and flavour material incubations were prepared as described in Example 1(b) above.
A fluoride stock solution (2,500 ppm F^−) was prepared by dissolving […] NaF in 10 ml of GTSB. For fluoride controls, 2.5 ml of stock inoculum culture was added to 2.48 ml of GTSB, and 20 μl of fluoride stock solution.
For flavour material and fluoride incubations, 2.5 ml of stock inoculum culture was added to 2.43 ml of GTSB, 50 μl of flavour material stock solution and 20 μl of fluoride stock solution.
The mixtures were incubated anaerobically.
as §3, with “broths.” for “broths containing flavour material/flavour and an untreated control.”
(§4) If the pH of the incubated broth containing flavour material and fluoride was higher than that measured for incubated broths containing either flavour material or fluoride, then this was considered to indicate that there had been a synergistic effect between the flavour material and fluoride in reducing the acid production of Streptococcus mutans.

[2] = tested on: Streptococcus mutans R9; assay: Synergy of flavour material with xylitol in reducing acid production (glucose/xylitol broth pH test); type: cell-based; settings: anaerobic incubation 18-24 hours, pH difference between broths
Procedure: Xylitol is a sugar substitute that has been used in many products as a non-cariogenic sweetener. The potential synergy between xylitol and a flavour material useful in the composition of the invention was investigated using a glucose/xylitol broth by the following method. Flavour materials were tested at 250 ppm unless otherwise stated.
as §1, §2
Control and flavour material incubations were prepared as described in Example 1(b) above. Xylitol synergy was investigated by adding 2.5 ml of stock inoculum culture to 2.5 ml of GTSB supplemented with 4% (w/v) xylitol. […]
as §3, with “broths.” for “broths containing flavour material/flavour and an untreated control.”
as §4, with “xylitol” for “fluoride”, “recorded” for “measured”, “xylitol,” for “fluoride,”, “was” for “had been”, “synergy” for “synergistic effect”, “mutans. […]” for “mutans.”

Cc1ccc(C(C)C)c(O)c1 [Thymol, thymol]
Synergy with Fluoride [1]: + (Inhibition of acid production by an additional 0.01-0.24 pH units)

CC(C)=CCCC(C)=CC=O [Citral Natural, citral]
Synergy with Fluoride [1]: + (Inhibition of acid production by an additional 0.01-0.24 pH units)

CCCCCCCCCC=O [Aldehyde C10 (Decanal), decanal]
Synergy with Fluoride [1]: ++ (Inhibition of acid production by an additional 0.25-0.49 pH units)

CCCCCCCCCO [Alcohol C9, nonanol]
Synergy with Xylitol ([2]; flavour material at 62.5 ppm): +++ (Inhibition of acid production by an additional 0.50-0.74 pH units)

O=C/C=C/c1ccccc1 [Cinnamic Aldehyde Extra, cinnamic aldehyde]
Synergy with Fluoride [1]: ++ (Inhibition of acid production by an additional 0.25-0.49 pH units)

CCCCCCCCCCO [Alcohol C10 (Decanol), decanol]
Synergy with Fluoride [1]: ++++ (Inhibition of acid production by an additional 0.75 pH units or more (i.e. >0.75 pH units in addition to the effect of fluoride or flavour material alone))

CC=Cc1ccc(OC)cc1 [Anethole Synthetic, anethole]
Synergy with Fluoride [1]: ++++ (Inhibition of acid production by an additional 0.75 pH units or more (i.e. >0.75 pH units in addition to the effect of fluoride or flavour material alone))

Damascone
Synergy with Xylitol ([2]; flavour material at 250 ppm): ++ (Inhibition of acid production by an additional 0.25-0.49 pH units)

CC(=O)/C=C/C1C(C)=CCCC1(C)C (stereo not drawn) [Ionone Alpha, ionone alpha]
Synergy with Xylitol ([2]; flavour material at 125 ppm): ++++ (Inhibition of acid production by an additional 0.75 pH units or more (i.e. >0.75 pH units in addition to the effect of fluoride or flavour material alone))
